The text below walks through data of patent US6730787B1, “2,4Dioxo-5-arylidenimino-1,3-pyrimidines” (priority 2001, dated 2004).

≈ marks a conversion by molar mass, not a printed value. Where two headings read alike, the source gives them in different places.

One series concerns C.trachomatis D323. As to the kind of experiment: Effect on Chlamydia trachomatis in cell culture. The format is cell-based. Conditions: for percentage of cell protection from infection / Number of unchanged cells: 100 mg/l, 48 hours; for Number of unchanged cells: counted in 100 visual fields; for activity against chlamydia (in words): compared with Ciprofloxacin / compounds of Table 5. How it is done: The […] activity of the claimed compounds was studied in respect to C.trachomatis […], which is a standard strain contained in the collection of the department of microbiology of St. Petersburg State Pavlov Medical University. […] Cells were grown in flasks made of neutral glass in the medium RPMI-1640 containing 10% of fetal calf serum. The test was performed in flat-bottom flasks made of glass (non-toxic), that were supplied with cover glasses. The cells were introduced into the medium in the final concentration of 1×10^6 cell/ml. […] Simultaneously, tested compounds in a final concentration of 100 mg/l were added to the cells. The sample was centrifuged at 2400 G for 60 minutes at a room temperature and incubated at 37° C. for 2 hours. […] The samples were doubled using the medium without cycloheximide so as to exclude its effect on the investigated compounds. The samples were incubated for 48 hours in CO2-incubator. […] The effect of the compound was determined by analysis of the monolayer state and number of cells with CPI when compared with the control (cell culture infected with C.trachomatis […]); in doing so, the number of unchanged cells, that were counted in 100 visual fields obtained using the eyepiece-micrometer, was taken into consideration.

A further series concerns no-breed white mice. The format is in vivo. The conditions noted are these: observed 72 hours, 300 was the maximally utilized concentration. The method, then: Tested substance was introduced orally (in dose of 300 mg/kg) through a gastric tube or intraperitoneally (in dose of 100 mg/kg) to no-breed white mice with mass 18-20 g (each tested group consisted of 3 males and 3 females). Then the mouse state was observed during 72 hours. Absence of symptoms characteristic of toxic effects, or absence of animal death during the given time allows to make a conclusion that the toxicity of the tested substance is low. If acute toxicity effects are observed, the dose is reduced to find maximal tolerable dose.

The subject of the next series is rats. As to the kind of experiment: Hepatoprotective activity (CCl4 liver damage, AlAT). The format is in vivo. How it is done:
CCl4 dissolved in 50% olive oil (1 ml/kg) was subcutaneously administrated to rats. Test substances were administrated perorally in a dose of 20 mg/kg 30 minutes before and 7 hours after the CCL4 administration. The activity of alanine-aminotranspherase (AlAT), which is a marker enzyme of liver parenchyma damage, was assessed twenty-four hours later. Reducing of enzyme amount by more than 30% relative to the control group was considered as evidence of hepatoprotective properties of the substance. Vitamin E in a dose of 100 mg/kg was used as a reference agent.

Series [1] concerns Mycobaciterium tuberculosis H37RV. In words: Antimicrobial effect, serial dilution method (MIC). The series is classed as cell-based, Mycobacterium tuberculosis. Conditions: 72-hour cultivation at 37° C.
The test system of series [2] is primary culture of human lymphocytes. In words: Interferon-inducing activity in primary culture of human lymphocytes (IFN-α immunoenzyme test). The format is cell-based. The method, then: To obtain lymphocyte culture, fresh blood (within 12 hours after sampling) from healthy donors (not of group II) was used. To separate lymphocytes, heparinized blood obtained from healthy donor was centrifuged in a density gradient ficoll-verografin of […] in order to extract a fraction of immunocompetent cells. This fraction was selected and diluted with the nutrient medium RPMI-1640, containing 5% of fetal calf serum, 0.3 mg/ml of L-glutamin, 100 un/ml of penicillin, and 50 μg/ml of streptomycin. The concentration of lymphocytes was considered after dying them with methylene blue and calculation of cell number in a chamber of a hemocytometer. Initial solutions of the claimed compounds were diluted with the nutrient medium RPMI-1640 so that the final concentrations of the compounds which were obtained after introduction of lymphocyte suspension, constituted the raw: 100 μg/ml, 10 μg/ml, 1 μg/ml. The final concentration of lymphocytes in the induction mixture was 3×10^6 cell/ml.
Control and test samples were incubated for 24 hours at the temperature of 37° C. After incubation, the samples were centrifuged at 2,000 G to deposit cell elements, and IFN-containing supernatant was separate out of the samples; then the supernatant was analyzed for the quantitative content of IFN. Cell deposition was resuspended in the preceding volume of nutrient medium, colored with vital dye trypan blue, and cell number was counted in a chamber of a hemocytometer (as described above) to determine cytotoxic effect of the compounds.
Quantitative determination of the content of IFN in control and test samples was conducted using the immunoenzyme test system Pro Con IF2 Plus, that is intended for determination of IFN-α, which is produced by TOO <<Protein contour>>. The solid-phase immunoenzyme method, utilizing horse radish peroxidase as an indicator enzyme, was used to determine the quantity of interferon in the samples. Activity of the bonded peroxidase was measured using an automatic photometer for microplates with a microprocessor at the wavelength of 450 nm.
Based on the obtained results, a calibrating curve was formed, which allows to obtain data expressed in international units (IU) of activity, using the microprocessor of the automatic photometer. The results of the analysis are expressed in IU of activity of IFN per ml in the given induction system, which contains 3×10^6 lymphocyte/ml. Each test and control point was investigated in four parallels.
The obtained data were undergone a statistical analysis using t-criterion, and calculation of the confident interval of probability at p=0.05 was carried out. Coincidence between the results obtained in the parallel tests was analyzed.

The subject of series [3] is Herpes Simplex virus of the type I (HSV-I/Leningrad/248/88). As to the kind of experiment: Effect on Herpes Simplex virus: cytopathogenic effect in Vero cells. Conditions: for Quantity of the unchanged cells: number of cells in 100 visual fields. The format is cell-based. Background: Protection from cytopathic effect is a common read-out in antiviral testing.
Series [4] deals with mice. As to the kind of experiment: Psychodepressant activity (behavioral depression score). The series is classed as in vivo. Conditions: one hour after per oral 300 mg/kg; total 60 points, less than 40 = significant behavioral depression; 3 mice. The method, then:
Each parameter scores 2 points for an each mouse that had unchanged behavior. The total point sum was 60 (2×10×3 mice). Reducing score to less than 40 one hour after dosing with a substance per oral (300 mg/kg) denoted significant behavioral depression. Haloperidol was utilized as a reference agent.

Series [5] has as its system mice. In words: Analgesic activity (tail withdrawal from radiant heat). The format is in vivo. How it is done:
The time needed to draw back a tail placed under a directed source of radiant heat was estimated in a group of 3 mice. Prolongation of the response time by more than 50% after intraperitoneal dosing the substance (30 mg/kg) indicated analgesic activity. Analginum (2 mg/kg) was utilized as a reference agent.

Where [6] appears, read: Mycobacterium tuberculosis, H37RV, read-out: MIC.
The mark [7] stands for this setting: compound 100 μg/ml, 36 hours of incubation.

As a reminder, the MIC is the least concentration at which growth counts as inhibited.

Take `CN(C)c1ccc(C=Nc2c[nH]c(=O)[nH]c2=O)cc1` [XXV, 2,4-dioxo-5-(4-dimethylamino-benzylidene) imino-1,3-pyrimidine]: in the series with C.trachomatis D323, the “percentage of cell protection from infection” value is on record as 55%, the “Number of unchanged cells” value is given as 7.700 and the “activity against chlamydia (in words)” value is “marked activity against chlamydia”. The “Maximal tolerable dose: Concentration of tested compounds (mg/l) at oral introducing” value (“Maximal tolerable dose: Concentration” for short) in the series on no-breed white mice stood at 300 mg/L.
As for Vitamin E [reference compound], in the series with rats (Vitamin E 100 mg/kg, reference agent), the “% of reducing AIAT” value is reported as −30%.
Regarding `[H]/N=C(/N)N[C@H]1[C@H](O)[C@@H](O)[C@H](O[C@@H]2O[C@@H](C)[C@](O)(C=O)[C@H]2O[C@@H]2O[C@@H](CO)[C@H](O)[C@@H](O)[C@@H]2NC)[C@@H](N/C(N)=N\[H])[C@@H]1O` [Streptomycin], the MIC in series [1] (setting [6]) was 0.2 µg/mL (≈ 0.344 µM).
The same measure, in the same setting: the value for `CC[C@@H](CO)NCCN[C@@H](CC)CO` [Ethambutol] was 5 µg/mL (≈ 24.5 µM).
As to Rifampycin, in series [1], the minimal inhibitory concentration (MIC) worked out at 0.05 µg/mL.
For `O=c1[nH]cc(N=Cc2ccc(Cl)cc2Cl)c(=O)[nH]1` [XI, 2,4-dioxo-5-(2,4-dichlorobenzylidene) imino-1,3-pyrimidine], in the series with C.trachomatis D323, the “percentage of cell protection from infection” value amounted to 55%, the “Number of unchanged cells” value was determined as 7.700 and the “activity against chlamydia (in words)” value is reported as “marked activity against chlamydia”. For the same compound, the “Maximal tolerable dose: Concentration” value in the series on no-breed white mice was found to be 300 mg/L.
For the compound `COc1cc(C=Nc2c[nH]c(=O)[nH]c2=O)ccc1O` [XV, 2,4-dioxo-5-(4-hydroxy-3-methoxybenzylidene) imino-1,3-pyrimidine], the entries for the “Content of IFN in induction mixture after 24-hour incubation” value in series [2] (substance 1 mg/l), in series [2] (substance 10 mg/l) and in series [2] (substance 100 mg/l) were 4,5 ± 1,6 IU/3 × 10^4 lymph./ml, 54,2 ± 1,8 IU/3 × 10^4 lymph./ml and 105 ± 2 IU/3 × 10^4 lymph./ml, respectively. Moreover, the “Maximal tolerable dose: Concentration” value in the series with no-breed white mice came to 300 mg/L.
With `O=c1[nH]cc(N=Cc2cc(Br)cc(Br)c2O)c(=O)[nH]1` [XIII, 2,4-dioxo-5-(2-hydroxy-3,5-dibromobenzylidene) imino-1,3-pyrimidine], in series [3] (setting [7]), the “% of protection” value came out at 80% and the “Quantity of the unchanged cells” value turned out to be 8000. Moreover, the “Maximal tolerable dose: Concentration” value with no-breed white mice came to 300 mg/L.
`O=C(CCCN1CCC(O)(c2ccc(Cl)cc2)CC1)c1ccc(F)cc1` [Haloperidol, reference compound] showed a Point number with mice [4] of 27.
Take `Cc1c(N(C)CS(=O)(=O)[O-])c(=O)n(-c2ccccc2)n1C.[Na+]` [Analginum, reference compound]: the “Prolongation of the latent period of response (%)” value in the series on mice [5] (Analginum 2 mg/kg, reference agent) worked out at 86%.
For `Nc1nc2c(ncn2COCCO)c(=O)[nH]1` [Acyclovir, reference compound], in series [3] (Acyclovir 30 μg/ml), the “% of protection” value was 80% and the “Quantity of the unchanged cells” value is 8000.
In the case of `O=c1[nH]cc(N=Cc2ccccc2[N+](=O)[O-])c(=O)[nH]1` [XVIII, 2,4-dioxo-5-(2-nitrobenzylidene) imino-1,3-pyrimidine], in the series with no-breed white mice, the “Maximal tolerable dose: Concentration” value is 300 mg/L. The same compound yielded a minimal inhibitory concentration (MIC) in series [1] of 100 µg/mL (≈ 384 µM).
Take `O=c1[nH]cc(N=Cc2cc([N+](=O)[O-])ccc2O)c(=O)[nH]1` [XIX, 2,4-dioxo-5-(2-hydroxy-5-nitrobenzylidene) imino-1,3-pyrimidine]: in series [3] (setting [7]), the “% of protection” value was found to be 80% and the “Quantity of the unchanged cells” value amounted to 8000. Moreover, the “Maximal tolerable dose: Concentration” value in the series with no-breed white mice turned out to be 300 mg/L.
Regarding `NNC(=O)c1ccncc1` [Isoniazid], the MIC in series [1] (setting [6]) was 0.1 µg/mL (≈ 0.729 µM).
As to `O=c1[nH]cc(N=Cc2cc(Br)ccc2O)c(=O)[nH]1` [VIII, 2,4-dioxo-5-(2-hydroxy-5-bromobenzylidene) imino-1,3-pyrimidine], in the series with no-breed white mice, the “Maximal tolerable dose: Concentration” value turned out to be 300 mg/L. Moreover, the minimal inhibitory concentration (MIC) in series [1] is 100 µg/mL (≈ 322 µM).
As to `CC1COc2c(N3CCN(C)CC3)c(F)cc3c(=O)c(C(=O)O)cn1c23` (stereo not drawn) [Ofloxacin], the minimal inhibitory concentration (MIC) in series [1] (setting [6]) turned out to be 0.5 µg/mL (≈ 1.38 µM).
`O=c1[nH]cc(N=Cc2ccccc2Cl)c(=O)[nH]1` [IV, 2,4-dioxo-5-(2-chlorobenzylidene) imino-1,3-pyrimidine]: the “Content of IFN in induction mixture after 24-hour incubation” value is listed as 15,2 ± 0,3 IU/3 × 10^4 lymph./ml in series [2] (substance 1 mg/l), 62,5 ± 1,3 IU/3 × 10^4 lymph./ml in series [2] (substance 10 mg/l) and 123,6 ± 0,5 IU/3 × 10^4 lymph./ml in series [2] (substance 100 mg/l). Besides, the “Maximal tolerable dose: Concentration” value with no-breed white mice is 300 mg/L.
Turning to `O=c1[nH]cc(N=Cc2cc(I)cc(I)c2O)c(=O)[nH]1` [XXIV, 2,4-dioxo-5-(2-hydroxy-3,5-diiodobenzylidene) imino-1,3-pyrimidine], the “Maximal tolerable dose: Concentration” value with no-breed white mice is 300 mg/L. For the same compound, the minimal inhibitory concentration (MIC) in series [1] amounted to 100 µg/mL (≈ 207 µM).
Take `O=c1[nH]cc(N=Cc2cc(Cl)cc(Cl)c2O)c(=O)[nH]1` [XII, 2,4-dioxo-5-(2-hydroxy-3,5-dichlorobenzylidene) imino-1,3-pyrimidine]: the “Prolongation of the latent period of response (%)” value in the series on mice [5] (intraperitoneal 30 mg/kg, more than 50% = analgesic activity) was 96%. In the series with mice [4], this compound returned a Point number of 35. Besides, in series [3] (setting [7]), the “% of protection” value is listed as 90% and the “Quantity of the unchanged cells” value is listed as 9000. In addition, the “% of reducing AIAT” value in the series on rats (perorally 20 mg/kg 30 minutes before and 7 hours after CCl4, assessed 24 hours later, relative to control group) is on record as −48%. Moreover, in the series on no-breed white mice, the “Maximal tolerable dose: Concentration” value was 300 mg/L. In addition, the MIC in series [1] was determined as 100 µg/mL (≈ 333 µM).
